The test system of data set [1] is Plasmodium falciparum. Briefly: Antimalarial activity against multi-drug-resistant Plasmodium falciparum W2 infected in human type A+ erythrocytes assessed as growth inhibition after 72 hrs by SYBR Green I assay. Format: functional, organism-based. The conditions noted are these: W2, 72 h.
Data set [2] can be described thus: Resistance index, ratio of EC50 for multi-drug-resistant Plasmodium falciparum TM90-C2B infected in human type A+ erythrocytes to EC50 for multi-drug-resistant Plasmodium falciparum W2 infected in human type A+ erythrocytes. Format: functional.
The nature of data set [3]: Intrinsic clearance in human liver microsomes at 1 uM by LC-MS analysis. It counts as ADME. The conditions noted are these: liver microsomes, read-out: CLH. Background: Microsomes from liver hold many membrane-bound enzymes, among them those of drug oxidation.
Data set [4] can be described thus: Cytotoxicity index, ratio of EC50 for mouse J774 cells to EC50 for multi-drug-resistant Plasmodium falciparum TM90-C2B infected in human type A+ erythrocytes. It counts as toxicity, cell-based. The following applies: read-out: Ratio EC50.
Data set [5] concerns Plasmodium falciparum. Briefly: Antimalarial activity against multi-drug-resistant Plasmodium falciparum TM90-C2B infected in human type A+ erythrocytes assessed as growth inhibition after 72 hrs by SYBR Green I assay. Format: functional, organism-based.
Another data set deals with J774. Briefly: Cytotoxicity against mouse J774 cells after 72 hrs by CellTiter 96 assay. It counts as cell-based. The following applies: J774, 72 h.
The test system of data set [6] is Plasmodium berghei. Briefly: Antimalarial activity against Plasmodium berghei ANKA expressing GFP infected in Balb/c mouse assessed as inhibition of parasitemia at 1 mg/kg, po qd administered as single dose on day 3 to 5 of exposure measured on day 6 post exposure by in vivo thomson test relative to control. It counts as functional.
Data set [7] is described as follows: Aqueous solubility of the compound at pH 7.4. The following applies: buffer. It counts as physicochemical.
Data set [8] is described as follows: Plasma clearance in Sprague-Dawley rat at 0.15 mg/kg, iv. It counts as ADME, organism-based. On the set-up: dose 0.15 mg/kg, route intravenous.
The next data set has as its system Rattus norvegicus. Put plainly: Half life in Sprague-Dawley rat at 0.15 mg/kg, iv. Format: ADME, organism-based. Also on record: dose 0.15 mg/kg, route intravenous. The following applies: in vivo.
Data set [9] concerns Plasmodium berghei. Put plainly: Antimalarial activity against Plasmodium berghei ANKA expressing GFP infected in Balb/c mouse assessed as inhibition of parasitemia at 3 mg/kg, po qd administered as single dose on day 3 to 5 of exposure measured on day 6 post exposure by in vivo thomson test relative to control. It counts as functional.
In data set [10] the test system is Plasmodium berghei. Briefly: Antimalarial activity against Plasmodium berghei ANKA expressing GFP infected in Balb/c mouse assessed as mouse survival at 10 mg/kg, po qd administered as single dose on day 3 to 5 of exposure measured on day 6 post exposure by in vivo thomson test relative to control. It counts as functional.
The nature of data set [11]: Apparent oral bioavailability in Sprague-Dawley rat at 10 mg/kg. It counts as ADME, organism-based. The conditions noted are these: in vivo.
The nature of data set [12]: Volume of distribution in Sprague-Dawley rat at 0.15 mg/kg, iv. Format: ADME, organism-based. On the set-up: dose 0.15 mg/kg, route intravenous. The conditions noted are these: in vivo.
In data set [13] the test system is Plasmodium berghei. Briefly: Antimalarial activity against Plasmodium berghei ANKA expressing GFP infected in Balb/c mouse assessed as mouse survival at 3 mg/kg, po qd administered as single dose on day 3 to 5 of exposure measured on day 6 post exposure by in vivo thomson test relative to control. Format: functional.
For data set [14], the system named is Plasmodium berghei. Put plainly: Antimalarial activity against Plasmodium berghei ANKA expressing GFP infected in Balb/c mouse assessed as mouse survival at 50 mg/kg, po qd administered as single dose on day 3 to 5 of exposure measured on day 6 post exposure by in vivo thomson test relative to control. It counts as functional.
For data set [15], the system named is Plasmodium berghei. Put plainly: Antimalarial activity against Plasmodium berghei ANKA expressing GFP infected in Balb/c mouse assessed as mouse cured from disease at 50 mg/kg, po qd administered as single dose on day 3 to 5 of exposure measured on day 30 post exposure by in vivo thomson test relative to control. Format: functional.
Data set [16] relates to Plasmodium berghei. Put plainly: Antimalarial activity against Plasmodium berghei ANKA expressing GFP infected in Balb/c mouse assessed as mouse survival at 1 mg/kg, po qd administered as single dose on day 3 to 5 of exposure measured on day 6 post exposure by in vivo thomson test relative to control. It counts as functional.
The subject of data set [17] is Plasmodium berghei. Put plainly: Antimalarial activity against Plasmodium berghei ANKA expressing GFP infected in Balb/c mouse assessed as mouse cured from disease at 10 mg/kg, po qd administered as single dose on day 3 to 5 of exposure measured on day 30 post exposure by in vivo thomson test relative to control. Format: functional.
The conditions of data set [18]: octanol/water, pH 7.4.
In data set [19] the test system is Plasmodium berghei. Put plainly: Antimalarial activity against Plasmodium berghei ANKA expressing GFP infected in Balb/c mouse assessed as mouse cured from disease at 3 mg/kg, po qd administered as single dose on day 3 to 5 of exposure measured on day 30 post exposure by in vivo thomson test relative to control. Format: functional.
For data set [20], the system named is Plasmodium berghei. Put plainly: Antimalarial activity against Plasmodium berghei ANKA expressing GFP infected in Balb/c mouse assessed as inhibition of parasitemia at 10 mg/kg, po qd administered as single dose on day 3 to 5 of exposure measured on day 6 post exposure by in vivo thomson test relative to control. It counts as functional.
The test system of data set [21] is Plasmodium berghei. Briefly: Antimalarial activity against Plasmodium berghei ANKA expressing GFP infected in Balb/c mouse assessed as inhibition of parasitemia at 50 mg/kg, po qd administered as single dose on day 3 to 5 of exposure measured on day 6 post exposure by in vivo thomson test relative to control. Format: functional.
Data set [22] concerns Plasmodium berghei. Briefly: Antimalarial activity against Plasmodium berghei ANKA expressing GFP infected in Balb/c mouse assessed as mouse survival at 30 mg/kg, po qd administered as single dose on day 3 to 5 of exposure measured on day 6 post exposure by in vivo thomson test relative to control. Format: functional.

On to `COc1cc2[nH]c(C)c(-c3cccnc3)c(=O)c2cc1Cl`, for which the EC50 was 748 nM in the data set on Plasmodium falciparum [1], 120 nM with Plasmodium falciparum [5] and over 33300 nM with J774. Also, the “Ratio EC50” value in [2] is 0.16. Further, the microsomal CLint at 1 µM in data set [3] was 15 µL/min/mg. Also, the selectivity ratio in data set [4] was over 277.

Consider `COc1cc2[nH]c(C)c(-c3ccc(Oc4ccc(OC(F)(F)F)cc4)cc3F)c(=O)c2cc1Cl`, for which the 50% effective concentration (EC50) with Plasmodium falciparum [1] was 3.74 nM; with Plasmodium falciparum [5], 15.2 nM; in the data set on J774, over 20200 nM. The inhibition in vivo at 1 mg/kg with Plasmodium berghei [6] was found to be 99.3%. For the same compound, in [2], the “Ratio EC50” value came out at 4.07. In [7], this compound had a kinetic solubility of under 2 µM. Also, the clearance in [8] was found to be 0.3 mL/min/kg. In addition, in the data set on Rattus norvegicus, the t1/2 was found to be 32 h. Moreover, the inhibition in vivo at 3 mg/kg in the data set on Plasmodium berghei [9] worked out at 99.3%. Moreover, the selectivity ratio in data set [4] is over 1330. Also, the survival time at 10 mg/kg in the data set with Plasmodium berghei [10] came to 23 days. Also, in data set [11], the bioavailability was found to be 14%. In data set [12], this compound showed a Vd of 0.7 L/kg. Moreover, in the data set on Plasmodium berghei [13], the survival time at 3 mg/kg came to 23 days. In addition, the mouse survival time at 50 mg/kg in the data set on Plasmodium berghei [14] amounted to 23 days. For the same compound, the Activity in the data set on Plasmodium berghei [15], in the data set with Plasmodium berghei [17] and in the data set with Plasmodium berghei [19] was 100% throughout. Also, the survival at 1 mg/kg with Plasmodium berghei [16] was 23 days. The log distribution coefficient (logD) in [18] was found to be 3.4. Further, the inhibition in vivo at 10 mg/kg in the data set with Plasmodium berghei [20] came out at 99.5%. Besides, the inhibition in vivo at 50 mg/kg with Plasmodium berghei [21] was 99.2%.

With `CCN(CC)Cc1cc(Nc2ccnc3cc(Cl)ccc23)ccc1O` [AMODIAQUINE], the survival at 30 mg/kg in the data set on Plasmodium berghei [22] came to 23 days.

For orientation: EC50 means the concentration needed to bring the measured effect to its halfway point. For orientation: inhibition in vivo means the share of the control response that was lost under treatment. The term kinetic solubility denotes the concentration staying in solution when a stock, usually in DMSO, is diluted into the medium. Usually clearance stands for the rate of elimination divided by the concentration. A high value points to efficient removal. For orientation: bioavailability means the share of a dose that reaches the circulation, judged against a reference dose that is usually intravenous. A word on the Vd: it is the apparent volume that relates the amount in the body to the concentration in plasma or blood. Read a high Vd as extensive tissue distribution. As usually defined, the logD is lipophilicity at a set pH, counting ionised and neutral species. Lower therefore signals a more hydrophilic compound.
